How the values were obtained:
[1] = Lipid lowering effect in normal Wistar rats (Example 4); type: in vivo; settings: gavage once daily for 7 days; dose mg/day/kg body weight: TSA 15, EPA 1500, TTA 150
Procedure: Phospholipids were measured by the enzymatic method of bioMérieux, Marcy-l{grave over ( )}Etoile, France, Triacylglycerol by the Technicon Method no. SA4-0324L90, USA and Cholesterol by the Technicon Method no. SA4-0305L90, USA.
Male Wistar rats, weighing 180-200 g at the start of the experiment, were housed individually in metal wire cages in a room maintained at 12 h light-dark cycles and a constant temperature of 20±3° C. The animals were acclimatised for one week under these conditions before the start of the experiments.
TTA, TSA and eicosapentaenoic acid (EPA) were suspended in 0.5% (w/v) carboxymethyl cellulose (CMC). Six animals were used for each treatment, and a 0.5% CMC solution was administrated to the rats as control. After administration of the test compound, the rats were fasted for 12 hours and anaesthetised with haloethan. The EPA and the fatty acid derivatives were administered by gastric intubation (gavage) once daily for 7 days. Blood samples were collected by cardiac puncture, and lipid concentrations in plasma were determined as outlined in the method section.

[2] = tested on: mitochondrial β-oxidation; assay: Effect of fatty acid analogues on mitochondrial β-oxidation in rat liver (Example 18); type: in vivo; settings: [1-14C]-palmitoyl-L-carnitine as substrate
Procedure: Freshly isolated livers from individual old Zucker rats, were homogenised in ice-cold sucrose buffer (0.25 M sucrose, 10 mM HEPES (pH 7.4) and 2 mM EDTA). Post-nuclear and mitochondrial fractions were prepared using preparative differential centrifugation according to DeDuve et al. (De Duve, C., et al., Biochem. J., 60, 604-617 1955.) Modifications, purity and yield were as described earlier (Garras, A., et al., Biochim. Biophys. Acta, 1255, 154-160 1995.). Acid soluble products were measured in post-nuclear and mitochondrial enriched fractions, using [1-^14C]-palmitoyl-CoA and [1-^14C]-palmitoyl-L-carnitine (Radio-chemical Centre, Amersham, England) as substrates as described earlier (Willumsen, N., et al., J. Lipid Res., 34, 13-22 1993. Carnitine palmitoyltransferase-I and -II activities were measured in the post-nuclear and mitochondrial fractions essentially as described by Bremer (Bremer, J., Biochim. Biophys. Acta, 665, 628-631 1981.) and 3-hydroxy-3-methylglutharyl-CoA synthase was measured according to Clinkenbeard et al. (Clinkenbeard, K. D., et al., J. Biol. Chem, 250, 3108-3116 1975.) in the mitochondrial fractions.
Obese Zucker (fa/fa) rats were given a standard chow either with (n=6) or without (n=5) 0.15% TTA. Following 21 days of treatment, rats were killed by cervical dislocation and the livers were removed. […] Values are expressed as the mean±S.D.

[3] = tested on: Escherichia coli; assay: Test for mutagenic activity in Escherichia coli strains; type: cell-based; settings: 3-1000 mg/plate (TTA), 2-5000 mg/plate (TSA)
Description: (§1) Tests for mutagenic activity have been performed by Covance Laboratories Limited, England. […] Furthermore, TTA was not mutagenic when tested in mouse lymphoma cells […] L5178Y.

[4] = tested on: mouse lymphoma cells, L5178Y; assay: Mutagenicity test in mouse lymphoma cells L5178Y; type: cell-based; settings: concentration 2.5-50 mg/ml
Description: as §1

[5] = tested on: cultured Chinese hamster ovary cells; assay: Chromosomal aberrations in cultured Chinese hamster ovary cells; settings: doses tested 12-140 mg/ml
[6] = tested on: Salmonella typhimurium; assay: Test for mutagenic activity in Salmonella typhimurium strains; type: cell-based; settings: 3-1000 mg/plate (TTA), 2-5000 mg/plate (TSA)
Description: as §1

[7] = Hepatic levels of triacylglycerol (Example 17); type: in vivo, Wistar rats; settings: fed 6 days, no prefeeding; TTA 150 mg/kg/day, TTP 300 mg/kg/day
Procedure: Male Wistar rats had free access to water and rat maintenance chow. They were fed palmitic acid or fatty acid analogues suspended in 0.5% CMC for 6 days. In some experiments TTA or TTP were fed for 3 days before feeding both for 6 days. At the end of the experiment the rats were fasted overnight, killed, the liver removed and homogenized. Triacylglycerol was measured in the homogenate.

## CC/C=C\C/C=C\C/C=C\C/C=C\C/C=C\CCCC(=O)O [EPA, eicosapentaenoic acid, reference compound]
[1]
  Plasma lipids: cholesterol: 18 % reduction of control
  Plasma lipids: triglycerides: 20 % reduction of control

## CCCCCCCCCCCCCCCC(=O)O [Palm, palmitic acid]
[2]
  Mitochondrial β-oxidation activity: 0.47 ± 0.06 nmol/min/mg protein

## CCCCCCCCCCCCCC[Se]CC(=O)O [TSA, Tetradecylselenioacetic acid]
[3]
  Induction of mutations: did not induce mutations
[4]
  Mutagenicity: not to be mutagenic
[5]
  Chromosomal aberrations: no aberrations were induced
[1]
  Plasma lipids: cholesterol: 20 % reduction of control
  Plasma lipids: triglycerides: 25 % reduction of control
[6]
  Induction of mutations: did not induce mutations

## CCCCCCCCCCCCCCSCCC(=O)O [reference compound]
[7]
  Hepatic TG (triacylglycerol): 95.4 ± 14.7 µmol/g

Source: US6441036B1 (priority 1998, dated 2002)
